Data taken from patent US12134604B1, “1-[4,5-bis(4-chlorophenyl)-1-hexyl-1H-imidazol-2-yl]-2-naphthol as an antimicrobial compound” (KING FAISAL UNIVERSITY, priority 2023, dated 2024).

Legend:
Format in all cases: cell-based
Conditions in all cases: after 10, 20, 40 and 60 minutes at all dilutions 1:100, 1:200, 1:400, 1:800 (summary in words)
Pseudomonas aeruginosa = test: Antimicrobial screening by agar dilution, Pseudomonas aeruginosa
Protocol: (§1) The antimicrobial properties of the 1-[4,5-bis(4-chlorophenyl)-1-hexyl-1H-imidazol-2-yl]-2-naphthol was studied by the method of agar dilution. Test solutions of each compound was prepared in concentration of 1% using dimethylformamide as a solvent then they are diluted in physiological solution to obtain the final experimental dilutions 1:100, 1:200, 1:400, 1:800. The effect of these substances are compared with furacillin in a controlled study. The testing microbes used were gram positive bacteria Staphylococcus aureus, gram negative bacteria Pseudomonas aeruginosa and Escherichia coli and Candida albicans fungi were taken. The experiments used for this survey were meat-pentonlu agar (EPA) for cultivation of bacteria and Saburo environment for fungi. Each experiment used 1 ml of test solution on each plate 500 min. Add 2 drops of emulsified with microbes feel. All experimental samples were taken from the agar after 10, 20, 40, 60 minutes in the environment on the basis of Patrk planted. Bacteria were cultivated at a temperature of 37° C. for 1 day and the mushroom was kept in a thermostat for […] at a temperature of 28° C. in the. Then results were checked.

Candida albicans = test: Antimicrobial (antifungal) screening by agar dilution, Candida albicans
Protocol: as §1

Staphylococcus aureus = test: Antimicrobial screening by agar dilution, Staphylococcus aureus
Protocol: as §1

Escherichia coli = test: Antimicrobial screening by agar dilution, Escherichia coli
Protocol: as §1

Measured: inhibition activity

CCCCCCn1c(-c2c(O)ccc3ccccc23)nc(-c2ccc(Cl)cc2)c1-c1ccc(Cl)cc1 [1-[4,5-bis(4-chlorophenyl)-1-hexyl-1H-imidazol-2-yl]-2-naphthol]
highest inhibition activity: all assays above
